How the values were obtained:
[1] = test system: AR; test: AR transactivation assay, MMTV-CAT reporter, transient transfection (Example 1); format: cell-based, human; settings: DU145 cells; wild type AR; 1 nM DHT
Procedure: Human prostate cancer DU145 or PC3 cells, or human lung carcinoma cells NCI H1299 were grown in Dulbecco's minimal essential medium (DMEM) containing penicillin (25 U/ml), streptomycin (25˜g/ml), and 5% fetal calf serum (FCS). One hour before transfection, the medium was changed to DMEM with 5% charcoal-stripped FCS. […] A β-galactosidase expression plasmid, pCMV-β-gal, was used as an internal control for transfection efficiency.
The medium was changed 24 hr posttransfection and the cells treated with either steroid hormones or hydroxyflutamide, and cultured for an additional 24 hr. Cells were harvested and assayed for CAT activity after the cell lysates were normalized by using β-galactosidaseas an internal control. Chloramphenicol acetyltransferase (CA) activity was visualized by PhosphorImager (Molecular Dynamics) and quantitated by ImageQuant software (Molecular Dynamics).

[2] = test system: AR; test: AR transactivation reporter assay (CAT/luciferase) (Example 3); format: cell-based, human
Procedure: 21. […] Further adding GAL-DBD (lane 1 and 2) or GAL-DBD-ARA70N with wild type (lane 3 and 4) or mutant (lane 5-8) FXXLF motifs to the cells. (B) Effect of wild type and mutant FXXLF motifs ARA70N on AR transactivation in COS-1 cells. […] 0.5 ng SV40-Renila Luciferase was used as an internal control. Relative luciferase activity was calculated by dual luciferase system.
411. Human prostate cancer DU145 and PC-3 cells were maintained in Dulbecco's Minimum Essential Medium (DMEM) containing penicillin (25 U/ml), streptomycin (25 μg/ml), and 5% fetal calf serum (FCS). Human LNCaP cells were maintained in RPMI containing penicillin (25 U/ml), streptomycin (25 μg/ml), and 10% FCS. Transfections were performed using the calcium phosphate precipitation method, as previously described (Dynlacht et al. (1991) Cell 66, 563-576). Briefly, 4×10^5 cells were plated on 60-mm dishes 24 hours before transfection, and the medium was changed to DMEM with 5% charcoal-dextran stripped FCS (CS-FBS) one hour before transfection. Transfection medium contained a constant amount of reporter plasmid and indicated amounts of pSG5-receptor, ARA70, or pCMX-GAL fusion construct using pSG5 as a carrier to provide equal amounts of transfected DNA. […] After another 24 hours, the cells were harvested for chloramphenicol transferase (CAT) or luciferase assays. At least three independent experiments were carried out in each case. Superfect (Qiagen) was used for transfection in LNCaP cells. The transfection conditions followed the manufacturer's protocol. Cell extracts were prepared and assayed for CAT or luciferase activity (Promega) and normalized against β-galactosidase or Renilla luciferase activity as indicated. All data were the mean±SD results from three to six independent experiments.

[3] = target: T1, PPAR-γ (Homo sapiens, UniProt P37231); test: PPAR-γ transactivation reporter assay (PPRE-Luc) with SV; format: cell-based
T1 sequence (P37231 1-505): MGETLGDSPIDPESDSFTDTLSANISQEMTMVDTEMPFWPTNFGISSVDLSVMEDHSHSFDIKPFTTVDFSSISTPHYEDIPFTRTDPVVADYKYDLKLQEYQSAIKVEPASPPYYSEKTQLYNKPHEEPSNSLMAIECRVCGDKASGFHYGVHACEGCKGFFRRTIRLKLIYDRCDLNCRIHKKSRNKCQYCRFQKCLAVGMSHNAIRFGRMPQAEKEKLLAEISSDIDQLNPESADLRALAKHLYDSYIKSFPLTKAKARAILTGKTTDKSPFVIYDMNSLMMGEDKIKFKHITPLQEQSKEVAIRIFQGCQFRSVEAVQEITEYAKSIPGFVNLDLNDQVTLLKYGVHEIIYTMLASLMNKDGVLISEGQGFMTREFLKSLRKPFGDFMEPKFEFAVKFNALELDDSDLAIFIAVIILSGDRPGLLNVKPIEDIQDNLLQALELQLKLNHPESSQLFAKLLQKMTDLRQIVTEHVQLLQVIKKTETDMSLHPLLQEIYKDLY
Procedure: 42. […] (A) The interaction of SV with AR, GR, PPAR-γ and ER-α is tested in mammalian two-hybrid assay. One μg plasmids expressing Gal4(DBD)-AR, GR, PPAR-γ or ER-α was co-transfected with 4 μg plasmids expressing VP16 or VP16-SVn to COS-1 cells. […] The assay method was the same as described in FIG. 29. Relative activities of ligand treatment to EtOH treatment are shown. (B) The coactivation function of SV in different receptors was assayed using reporter gene study. MMTV-Luc, PPRE-Luc, ERE-Luc are the reporter genes for AR, GR, PPAR-γ, and ER-α respectively. Lanes 1, 5, 9 and 13 are regarded as 1 fold in each panel.
475. In AR transactivation activity assays, transfections were performed using SuperFect (Qiagen, Chatsworth, Calif.) following protocols described in manual provided by Qiagen. Briefly, cells were plated on 35 mm dishes and after 24 h were transfected using the SuperFect kit. The total DNA amount was adjusted to 2 μg with pSG5 or pEGFP vectors. The medium was changed to DMEM with 10% CD-FBS 2 h after transfection. After 24 h, the DMEM with 10% CD-FBS was changed again, and the cells were treated with various steroids. Cells were harvested after 24 h for dual-luciferase assay as described in protocol provided by Promega. At least three independent experiments were carried out in each case.

AR, sequence (P10275 whole entry): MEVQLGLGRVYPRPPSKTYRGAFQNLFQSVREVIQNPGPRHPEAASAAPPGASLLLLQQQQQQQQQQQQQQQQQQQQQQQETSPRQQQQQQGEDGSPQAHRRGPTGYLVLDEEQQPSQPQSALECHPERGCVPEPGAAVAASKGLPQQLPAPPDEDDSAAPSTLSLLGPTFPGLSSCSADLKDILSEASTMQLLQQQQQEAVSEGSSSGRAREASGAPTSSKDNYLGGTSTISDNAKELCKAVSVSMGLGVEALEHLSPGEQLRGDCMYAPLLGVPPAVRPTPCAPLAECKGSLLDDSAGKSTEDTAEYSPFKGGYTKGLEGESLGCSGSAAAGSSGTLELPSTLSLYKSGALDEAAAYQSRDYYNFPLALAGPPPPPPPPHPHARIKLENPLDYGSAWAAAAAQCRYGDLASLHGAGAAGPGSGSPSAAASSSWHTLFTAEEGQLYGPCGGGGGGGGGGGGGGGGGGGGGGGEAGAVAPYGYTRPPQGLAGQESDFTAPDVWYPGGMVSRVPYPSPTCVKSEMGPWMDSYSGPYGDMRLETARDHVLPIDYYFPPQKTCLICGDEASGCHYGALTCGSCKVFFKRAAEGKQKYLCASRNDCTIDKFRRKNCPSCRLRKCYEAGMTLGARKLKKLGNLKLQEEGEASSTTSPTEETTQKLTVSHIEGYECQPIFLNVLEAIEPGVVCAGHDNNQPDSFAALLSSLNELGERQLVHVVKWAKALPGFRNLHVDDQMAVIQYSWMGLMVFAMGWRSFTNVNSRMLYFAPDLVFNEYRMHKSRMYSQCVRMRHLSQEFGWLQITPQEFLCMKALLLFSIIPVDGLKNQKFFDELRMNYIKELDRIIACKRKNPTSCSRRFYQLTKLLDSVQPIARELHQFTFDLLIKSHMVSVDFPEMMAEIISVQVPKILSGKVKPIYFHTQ

| Substance | AR transcription activity with cotransfected coactivator [1] [fold] | enhancement of AR transactivation ([2]; COS-1 cells) [fold] | enhancement of AR transactivation ([2]; CV-1 cells) [fold] | enhancement of AR transactivation ([2]; DU145 cells, depending on the ratio of AR to ARA70) | enhancement of AR transactivation ([2]; PC-3 cells) [fold] | effect on the transactivation of PPAR-γ [3] |
| --- | --- | --- | --- | --- | --- | --- |
| ARA70: ligand-enhanced AR coregulator, full length ARA70 | 36 | 8 | 8 | 8-10 fold | 6 |  |
| SV: supervillin, 205 kDa actin binding protein; bovine SV (a.a. 1-1792) used in reporter assays |  |  |  |  |  | little effect |
